In patent publication US12472201B2, “Complexing agent salt formulations of pharmaceutical compounds” (Bexson Biomedical, Inc., priority 2020, dated 2025):
“And” between values parts separate entries of the source, which are not always exact repeats. Equal values may be shown once. Where a name gives a salt, the structure may show the parent alone. Marks after values point to notes of the source that are not given here.

Legend:
[1] = Forced precipitation of API HCl salt and API FB-CapAcid formulation with 2M NaOH; assay type: physicochemical; conditions: 70 mg/mL API in FB equivalents, 1 mL scale, 1 μL increments of 2M NaOH, starting pH 7.0±0.1
[2] = Final pH and average osmolality of API Captisol formulations and API salt solutions
[3] = Theoretical vs measured osmolarities of API-Cap formulations; assay type: physicochemical; conditions: API-Cap Formulations at 70 mg/mL freebase equivalents; for Percentage of Theoretical: measured osmolality vs calculated osmolarity
physchem = conditions: water, thermodynamic from solid
[4] = Solubility of DMT, 5-MeO-DMT and Mescaline in Captisol sodium solution; assay type: physicochemical; conditions: equimolar Captisol Sodium form in water; for Appearance after filtration / Osmolality / pH: agitated overnight; for Amine Conc.: total 10 g, agitated at room temperature overnight, after filtration
Method: An equimolar amount of Captisol Sodium form and 5 mL HPLC grade water were added to three 20 mL vials equipped with stir bars. Once a solution was formed, 638 mg of DMT, 700 mg of 5-MeO-DMT, and 700 mg of Mescaline were added to each vial. Each solution was diluted with water to a total solution weight of 10 g. The mixtures were agitated at room temperature overnight and analyzed.

[5] = Osmolality of ketamine HCl and ketamine-Captisol complexes; assay type: physicochemical; conditions: for Mean Osmolality: each sample run in triplicate
Method: Osmolality. Osmolality readings were obtained on an Advanced Instruments Advanced™ Micro Osmometer Model 3300 (Advanced Instruments, Inc. Norwood, MA, USA). Saline solutions (0.9% and 3%) were freshly prepared with sodium chloride (Fisher Scientific, Fair Lawn, NJ) and run as positive controls. Each sample was calculated as the mean from back-to-back triplicate measurements.

[6] = Forced precipitation of racemic ketamine with 2M NaOH; assay type: physicochemical; conditions: 70 mg/mL ketamine FB equiv., 2 mL volume, 2M NaOH after pH 5.5 in 1-2 μL volumes
Method: The tests were conducted on a 2 mL volume. Base was added in 1-2 μL volumes.

[7] = CapAcid-API Freebase Formulation (70 mg/mL API FB, 1.1 molar equiv CapAcid)
[8] = Captisol salt formulation with Sumatriptan stoichiometric succinate salt, 70 mg/mL FB equiv
[9] = salt solution, Sumatriptan stoichiometric succinate salt, 70 mg/mL FB equiv
[10] = API HCl salt (70 mg/mL in FB equiv)
[11] = Captisol-API HCl salt formulation (70 mg/mL API HCl salt in FB equiv, 1.1 molar equiv Captisol in CapAcid equiv)
[12] = salt solution, 5-IAI HCl 35 mg/mL FB equiv
[13] = Captisol salt formulation with DXM HBr 15 mg/mL FB equiv
[14] = salt solution, DXM HBr 15 mg/mL FB equiv
[15] = Captisol salt formulation with nicotine Stoichiometric Fumarate salt, 70 mg/mL FB equiv
[16] = salt solution, nicotine Stoichiometric Fumarate salt, 70 mg/mL FB equiv

## CNC(C)Cc1ccc2occc2c1.Cl (stereo not shown) [5-MAPB HCl]
[1]
  Volume of Base need for Precipitation: 47* μL

## CNS(=O)(=O)Cc1ccc2[nH]cc(CCN(C)C)c2c1 [Sumatriptan, 1-(3-(2-(dimethylamino)ethyl)-1H-indol-5-yl)-N-methylmethanesulfonamide, reference compound]
[2]; [7]
  Osmolality: 109 mOsm/kg
  pH: 7.06
[2]; [8]
  Osmolality: 858 mOsm/kg
  pH: 6.99
[2]; [9]
  Osmolality: 293 mOsm/kg
  pH: 4.57
[3]
  Measured Osmolality: 109 mOsmol/L

## CCN(CC)CC(=O)Nc1c(C)cccc1C [Lidocaine HCl, reference compound]
[1]
  Volume of Base need for Precipitation: 5 µL

## CNC(C)Cc1ccc2occc2c1 (stereo not shown) [Example 5-MAPB, 1-(benzofuran-5-yl)-N-methylpropan-2-amine]
[2]; [10]
  Osmolality: 556 mOsm/kg
  pH: 3.16
[2]; [7]
  Osmolality: 215 mOsm/kg
  pH: 7.10
[2]; [11]
  Osmolality: 1,004 mOsm/kg
  pH: 7.15
[3]
  Measured Osmolality: 215 mOsmol/L

## CNC1(c2ccccc2Cl)CCCCC1=O (stereo not shown) [Ketamine]
[3]
  Measured Osmolality: 291 mOsmol/L
  Percentage of Theoretical: 84.6%

## CNC(C)C(=O)c1cccc(C)c1 (stereo not shown) [Example 3-MMC, 2-(methylamino)-1-(m-tolyl)propan-1-one]
[2]; [10]
  Osmolality: 636 mOsm/kg
  pH: 4.76
[2]; [7]
  Osmolality: 312 mOsm/kg
  pH: 6.99
[2]; [11]
  Osmolality: 1,190* mOsm/kg
  pH: 6.98
[3]
  Measured Osmolality: 312 mOsmol/L

## CNC(C)Cc1cccc(F)c1 (stereo not shown) [Example 3-FMA, 1-(3-fluorophenyl)-N-methylpropan-2-amine]
[2]; [10]
  Osmolality: 706 mOsm/kg
  pH: 5.17
[2]; [7]
  Osmolality: 337 mOsm/kg
  pH: 6.78
[2]; [11]
  Osmolality: 1,388 mOsm/kg
  pH: 7.01
[3]
  Measured Osmolality: 337 mOsmol/L

## CNC1(c2ccccc2F)CCCCC1=O (stereo not shown) [Example 2-F-DCK, 2-(2-fluorophenyl)-2-(methylamino)cyclohexan-1-one]
[2]; [10]
  Osmolality: 560 mOsm/kg
  pH: 4.27
[2]; [7]
  Osmolality: 373 mOsm/kg
  pH: 6.97
[2]; [11]
  Osmolality: 1,046 mOsm/kg
[3]
  Measured Osmolality: 373 mOsmol/L
  Percentage of Theoretical: 100.9%

## Cc1cccc(C(=O)C(C)N(C)C)c1.Cl (stereo not shown) [Me-3-MMC HCl, Me-3-MMC hydrochloride]
[1]
  Volume of Base need for Precipitation: 6.5* μL

## NC1Cc2ccc(I)cc2C1 (stereo not shown) [Example 5-IAI, 5-iodo-2,3-dihydro-JH-inden-2-amine]
[2]; [7]
  Osmolality: 119 mOsm/kg
  pH: 6.97
[2]; [11]
  Osmolality: 621 mOsm/kg
  pH: 6.98
[2]; [12]
  Osmolality: 221 mOsm/kg
  pH: 4.62
[3]
  Measured Osmolality: 119 mOsmol/L

## COc1ccc2c(c1)[C@]13CCCC[C@@H]1[C@H](C2)N(C)CC3 [DXM HBr hydrate, dextromethorphan HBr hydrate]
physchem
  solubility at 48 h: 16.4 mg/mL

## COc1ccc2[nH]cc(CCN(C)C)c2c1 [Example 5-MeO-DMT, 5-methoxy-N,N-dimethyltryptamine]
[4]
  Appearance after filtration: Clear/faint yellow
  Osmolality: 316 mOsm/kg
  pH: 11.03
  Amine Conc.: 14.6 mg/mi

## CNC1(c2ccccc2)CCCCC1=O (stereo not shown) [DCK, 2-(methylamino)-2-phenylcyclohexan-1-one]
[2]; [10]
  Osmolality: 601 mOsm/kg
  pH: 4.73
[2]; [7]
  Osmolality: 310 mOsm/kg
  pH: 7.00
[2]; [11]
  Osmolality: 1,086 mOsm/kg
  pH: 6.98
[3]
  Measured Osmolality: 310 mOsmol/L
  Percentage of Theoretical: 77.1%

## CN1CC[C@]23c4c5ccc(O)c4O[C@H]2[C@@H](O)C=C[C@H]3[C@H]1C5 [Morphine, reference compound]
[2]; [7]
  Osmolality: 166 mOsm/kg
  pH: 6.09
[3]
  Measured Osmolality: 166 mOsmol/L
  Percentage of Theoretical: 57.9%

## COc1ccc2c(c1)[C@]13CCCC[C@@H]1[C@H](C2)N(C)CC3 [DXM, dextromethorphan, reference compound]
[2]; [7]
  Osmolality: 113 mOsm/kg
  pH: 6.95
[2]; [13]
  Osmolality: 145* mOsm/kg
  pH: 7.05
[2]; [14]
  Osmolality: 91 mOsm/kg
  pH: 5.47
[3]
  Measured Osmolality: 113 mOsmol/L

## CCN(CC)CC(=O)Nc1c(C)cccc1C [Lidocaine, reference compound]
[2]; [10]
  Osmolality: 543 mOsm/kg
  pH: 4.60
[2]; [7]
  Osmolality: 304 mOsm/kg
  pH: 6.99
[2]; [11]
  Osmolality: 844 mOsm/kg
  pH: 6.95
[3]
  Measured Osmolality: 304 mOsmol/L
  Percentage of Theoretical: 87.0%

## CNC1(c2ccccc2Cl)CCCCC1=O (racemic) [Ketamine HCl]
[5]; 75 mg/mL
  Mean Osmolality: 533.3 mOsm
[5]; 100 mg/mL
  Mean Osmolality: 703.0 mOsm
[5]; [Ketamine] 70 mg/mL FB equiv., HCl
  Average osmolality ± SEM: 527 ± 2.69 mOsm/kg and 527.0 ± 2.7 mOsm/kg
[5]; [Ketamine] 96 mg/mL FB equiv., HCl
  Average osmolality ± SEM: 704.4 ± 9.95 mOsm/kg and 704.4 ± 9.9 mOsm/kg
[5]; [Ketamine] 100 mg/mL FB equiv.
  Average osmolality ± SEM: 736.83 ± 3.7 mOsm/kg
[6]
  Mean Volume Base to precip ± SEM: 4 ± 0 µL

## CN(C)CCc1c[nH]c2ccccc12 [DMT, N,N-Dimethyltryptamine]
[4]
  Appearance after filtration: Clear/colorless
  Osmolality: 300 mOsm/kg
  pH: 11.10
  Amine Conc.: 13.6 mg/mi

## Cc1cccc(C(=O)C(C)N(C)C)c1 (stereo not shown) [Me-3-MMC, 2-(dimethylamino)-1-(m-tolyl)propan-1-one]
[2]; [10]
  Osmolality: 578 mOsm/kg
  pH: 4.44
[2]; [7]
  Osmolality: 321 mOsm/kg
  pH: 6.95
[2]; [11]
  Osmolality: 1,151 mOsm/kg
  pH: 7.00
[3]
  Measured Osmolality: 321 mOsmol/L

## CN1CCC[C@H]1c1cccnc1 [Nicotine, S-(−)-nicotine, reference compound]
[2]; [7]
  Osmolality: 555* mOsm/kg
  pH: 7.02*
[2]; [15]
  Osmolality: 2,006 mOsm/kg
  pH: 6.97
[2]; [16]
  Osmolality: 682 mOsm/kg
  pH: 3.80
[3]
  Measured Osmolality: 555 mOsmol/L
  Percentage of Theoretical: 110.1%

## COc1cc(CCN)cc(OC)c1OC [Mescaline]
[4]
  Appearance after filtration: Clear/light yellow
  Osmolality: 570 mOsm/kg
  pH: 11.69
  Amine Conc.: 77.7 mg/mi

## CNC(C)Cc1cccc(F)c1.Cl (stereo not shown) [3-FMA HCl]
[1]
  Volume of Base need for Precipitation: 37 µL
